Reference: patent US8987250B2 (Gilead Sciences, Inc., priority 2012, dated 2015)
Where two headings read alike, the source gives them in different places.

Legend:
human liver microsomes = assay: Test B: Metabolic Stability Assay with Human Liver Microsomes; assay type: in vitro ADME; details: 1 uM compound, 1 mg/mL human liver microsomal proteins, 37° C., 0-60 minutes; half-life class
From the text: Test B: Metabolic Stability Assay with Human Liver Microsomes
Effective viral suppression in the HIV infected patient requires that the antiviral drug persists in the patient's body at concentrations exceeding the minimum concentration required to inhibit viral proliferation. One of the factors controlling the drug levels after dosing is metabolic conversion. The liver is one site of drug metabolism. Approximately 60% of marketed drugs are cleared by hepatic metabolism (McGinnity D F et al. (2004) Drug Metab Dispos 32; 1247-1253). Liver microsomes are subcellular fractions which contain membrane bound drug metabolising enzymes. Human liver microsomes provide a convenient and concentrated source of the key liver metabolic enzymes (e.g., cytochromes P450, UDP-glucuronosyltransferases, and many others) and can be used to predict the metabolic stability of drug candidates (e.g., agents).
Cluster tubes containing 500 uL of 1 uM compound with 1 mg/mL human liver microsomal proteins (BD Biosciences, BD452117)/50 mM K-phosphate buffer pH7.4/NADPH regenerating system/and UDP-glucuronosyltransferase cofactors, were incubated on the Precision-2000 workstation at 37° C. for 0, 10, 25, 60 minutes. The reactions were quenched with 100 uL of 0.2% formic acid in 90% ACN; containing 50 nM of an internal standard. The samples were analyzed on LC/MS/MS instrument (Q-Trap). Metabolic stabilities in microsomal fractions and hepatocytes were determined by measuring the rate of disappearance of the compound. Data (% of parent remaining) were plotted on a semi logarithmic scale and fitted using an exponential fit.

HIV-IIIb = assay: Test A: Antiviral Assay in MT4 Cells; assay type: cell-based; details: MT-4 cells infected with HIV-IIIb, 5 days of incubation, CellTiter-Glo, read-out: EC50
Summary of the method: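 MT-4 cells pre-infected with HIV-IIIb (0.004 m.o.i.) at 37 °C, then exposed to 3-fold serial compound dilutions (10 concentrations, quadruplicate) in RPMI 1640/10% FBS. After 5 days at 37 °C, viability read by CellTiter-Glo luminescence.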

[1] = Human immunodeficiency virus 1, IIIB, MT4, 120 h, Table 1
[2] = Human immunodeficiency virus 1, IIIB, MT4, 120 h, Table 2

In the case of `Cc1cc2nc(-c3cccc(-c4ccc5c(cnn5C)c4)c3)sc2c(-c2ccc3c4c(ccnc24)CCO3)c1[C@H](OC(C)(C)C)C(=O)O` (atropisomer, axis not shown) [Compound 163], the “Human Microsomal stability” value (human liver microsomes) is reported as “C (a human microsomal stability half-life of less than 150 minutes)” and the EC50 (HIV-IIIb; Table 1) is reported as 18 nM.
`COc1cncc(-c2cccc(-c3nc4cc(C)c([C@H](OC(C)(C)C)C(=O)O)c(-c5ccc(Cl)cc5)c4s3)c2)c1` [Compound 104, (S)-2-tert-butoxy-2-(7-(4-chlorophenyl)-2-(3-(5-methoxypyridin-3-yl)phenyl)-5-methylbenzo[d]thiazol-6-yl)acetic acid] was tested, and the “Human Microsomal stability” value (human liver microsomes) was “C (a human microsomal stability half-life of less than 150 minutes)” and the EC50 (HIV-IIIb; [1]) was 42 nM.
In the case of `Cc1cc2nc(-c3cccc(-c4ccnc(Cl)c4)c3)sc2c(-c2ccc(Cl)cc2)c1[C@H](OC(C)(C)C)C(=O)O` [Compound 107, (S)-2-tert-butoxy-2-(7-(4-chlorophenyl)-2-(3-(2-chloropyridin-4-yl)phenyl)-5-methylbenzo[d]thiazol-6-yl)acetic acid], the “Human Microsomal stability” value (human liver microsomes) is reported as “C (a human microsomal stability half-life of less than 150 minutes)” and the EC50 (HIV-IIIb; [1]) is reported as 46 nM.
In the case of `Cc1cc2nc(-c3cccc(-c4ccc5c(cnn5C)c4)c3)sc2c(-c2ccc(Cl)cc2)c1[C@H](OC(C)(C)C)C(=O)O` [Compound 109, (S)-2-tert-butoxy-2-(7-(4-chlorophenyl)-5-methyl-2-(3-(1-methyl-1H-indazol-5-yl)phenyl)benzo[d]thiazol-6-yl)acetic acid], the “Human Microsomal stability” value (human liver microsomes) is reported as “B (a human microsomal stability half-life of less than 300 minutes but greater than or equal to 150 minutes)” and the EC50 (HIV-IIIb; [1]) is reported as 82 nM.
With `Cc1cc2nc(-c3ccnc(-c4ccc5c(cnn5C)c4)c3)sc2c(-c2ccc(Cl)cc2)c1[C@H](OC(C)(C)C)C(=O)O` [Compound 113a, (S)-2-tert-butoxy-2-(7-(4-chlorophenyl)-5-methyl-2-(2-(1-methyl-1H-indazol-5-yl)pyridin-4-yl)benzo[d]thiazol-6-yl)acetic acid] the “Human Microsomal stability” value (human liver microsomes) was “A (a human microsomal stability half-life of greater than or equal to 300 minutes)” and the EC50 (HIV-IIIb; [1]) was 16 nM.
In the case of `Cc1cc2nc(-c3cccc(-c4cnn(C(C)(C)C)c4)c3)sc2c(-c2ccc(Cl)cc2)c1[C@H](OC(C)(C)C)C(=O)O` [Compound 141], the “Human Microsomal stability” value (human liver microsomes) is reported as “B (a human microsomal stability half-life of less than 300 minutes but greater than or equal to 150 minutes)” and the EC50 (HIV-IIIb; [1]) is reported as 77 nM.
For `COc1cc(-c2cccc(-c3nc4cc(C)c([C@H](OC(C)(C)C)C(=O)O)c(-c5ccc(Cl)cc5)c4s3)c2)ccn1` [Compound 152], the “Human Microsomal stability” value (human liver microsomes) was “C (a human microsomal stability half-life of less than 150 minutes)” and the EC50 (HIV-IIIb; [1]) was 46 nM.
In the case of `Cc1cc2nc(-c3cccc(-c4cnn(C)c4)c3)sc2c(-c2ccc(Cl)cc2)c1[C@H](OC(C)(C)C)C(=O)O` [Compound 158], the “Human Microsomal stability” value (human liver microsomes) is reported as “C (a human microsomal stability half-life of less than 150 minutes)” and the EC50 (HIV-IIIb; [1]) is reported as 17 nM.
`Cc1cc2nc(-c3ccnc(-n4ccc5cnccc5c4=O)c3)sc2c(-c2ccc(Cl)cc2)c1[C@H](OC(C)(C)C)C(=O)O` [Compound 186, (S)-2-tert-butoxy-2-(7-(4-chlorophenyl)-5-methyl-2-(2-(1-oxo-2,6-naphthyridin-2(1H)-yl)pyridin-4-yl)benzo[d]thiazol-6-yl)acetic acid] was tested, and the “Human Microsomal stability” value (human liver microsomes) was “C (a human microsomal stability half-life of less than 150 minutes)” and the EC50 (HIV-IIIb; [2]) was 4 nM.
In the case of `Cc1cc2nc(-c3ccnc(N4CCN(C(C)C)CC4)n3)sc2c(-c2ccc(Cl)cc2)c1[C@H](OC(C)(C)C)C(=O)O` [Compound 202, (S)-2-tert-butoxy-2-(7-(4-chlorophenyl)-2-(2-(4-isopropylpiperazin-1-yl)pyrimidin-4-yl)-5-methylbenzo[d]thiazol-6-yl)acetic acid], the “Human Microsomal stability” value (human liver microsomes) is reported as “A (a human microsomal stability half-life of greater than or equal to 300 minutes)” and the EC50 (HIV-IIIb; [2]) is reported as 2 nM.
In the case of `Cc1cc2nc(-c3ccc4c(N(C)C)nn(C)c4c3)sc2c(-c2ccc(Cl)cc2)c1[C@H](OC(C)(C)C)C(=O)O` [Compound 206, (S)-2-tert-butoxy-2-(7-(4-chlorophenyl)-2-(3-(dimethylamino)-1-methyl-1H-indazol-6-yl)-5-methylbenzo[d]thiazol-6-yl)acetic acid], the “Human Microsomal stability” value (human liver microsomes) is reported as “C (a human microsomal stability half-life of less than 150 minutes)” and the EC50 (HIV-IIIb; [2]) is reported as 24 nM.
For `Cc1cc2nc(-c3ccc4c(c3)c(-c3cccnc3)nn4C)sc2c(-c2ccc(Cl)cc2)c1[C@H](OC(C)(C)C)C(=O)O` [Compound 212, (S)-2-tert-butoxy-2-(7-(4-chlorophenyl)-5-methyl-2-(1-methyl-3-(pyridin-3-yl)-1H-indazol-5-yl)benzo[d]thiazol-6-yl)acetic acid], the “Human Microsomal stability” value (human liver microsomes) was “A (a human microsomal stability half-life of greater than or equal to 300 minutes)”, the EC50 (HIV-IIIb; [2]) was 6 nM and the EC50 (HIV-IIIb; Table 1) was 726 nM.
`Cc1cc2nc(-c3ccc4c(c3)c(N3CCN(C)CC3)nn4C)sc2c(-c2ccc(Cl)cc2)c1[C@H](OC(C)(C)C)C(=O)O` [Compound 257, (S)-2-tert-butoxy-2-(7-(4-chlorophenyl)-5-methyl-2-(1-methyl-3-(4-methylpiperazin-1-yl)-1H-indazol-5-yl)benzo[d]thiazol-6-yl)acetic acid] was tested, and the “Human Microsomal stability” value (human liver microsomes) was “A (a human microsomal stability half-life of greater than or equal to 300 minutes)” and the EC50 (HIV-IIIb; [2]) was 5 nM.
`Cc1cc2nc(N3CCN(C)C(c4ccc5c(cnn5C)c4)C3)sc2c(-c2ccc(Cl)cc2)c1[C@H](OC(C)(C)C)C(=O)O` (stereo partly drawn) [Compound 278, (2S)-2-tert-butoxy-2-(7-(4-chlorophenyl)-5-methyl-2-(4-methyl-3-(1-methyl-1H-indazol-5-yl)piperazin-1-yl)benzo[d]thiazol-6-yl)acetic acid] was tested, and the “Human Microsomal stability” value (human liver microsomes) was “B (a human microsomal stability half-life of less than 300 minutes but greater than or equal to 150 minutes)” and the EC50 (HIV-IIIb; [2]) was 4 nM.
For `Cc1cc2nc(-c3ccnc(N4CC(N(C)C)C4)n3)sc2c(-c2ccc(Cl)cc2)c1[C@H](OC(C)(C)C)C(=O)O` [Compound 333, (S)-2-tert-butoxy-2-(7-(4-chlorophenyl)-2-(2-(3-(dimethylamino)azetidin-1-yl)pyrimidin-4-yl)-5-methylbenzo[d]thiazol-6-yl)acetic acid], the “Human Microsomal stability” value (human liver microsomes) was “A (a human microsomal stability half-life of greater than or equal to 300 minutes)” and the EC50 (HIV-IIIb; [2]) was 3 nM.
For `Cc1cc2nc(-c3ccnc(N4CCN(C5COC5)CC4)n3)sc2c(-c2ccc(Cl)cc2)c1[C@H](OC(C)(C)C)C(=O)O` [Compound 336, (S)-2-tert-butoxy-2-(7-(4-chlorophenyl)-5-methyl-2-(2-(4-(oxetan-3-yl)piperazin-1-yl)pyrimidin-4-yl)benzo[d]thiazol-6-yl)acetic acid], the “Human Microsomal stability” value (human liver microsomes) was “A (a human microsomal stability half-life of greater than or equal to 300 minutes)” and the EC50 (HIV-IIIb; [2]) was 2 nM.
